# Where no end group is shown, it is not given here.
# Columns and labels:
# NALM6 target cells [1] = test: Cytokine production in CAR T:NALM6 co-culture supernatant (Luminex); assay type: cell-based; details: 100 nM lenalidomide; 9:1 CAR T:NALM6
# Source text: (§1) To evaluate whether effector functions of primary T cells could be gated by lenalidomide, primary sCAR 913 T cells were generated. As the two split CAR components are delivered by separate lentivectors, this gave the ability to use FACS to purify cells expressing neither, one, or both components.
# (§2) Thalidomide analogs control degradable CAR T cell activation and effector functions in vitro and in vivo. To test whether degradable CAR T cell activation could be controlled with lenalidomide, 19BBz, 19BBz-dIKZF3, 19BBz-d91.3, and 19BBz-d91.3* Jurkat CAR T cell lines were co-cultured with K562 cells engineered to express the target antigen CD19 (K562-CD19) and 11 lenalidomide concentrations or vehicle control. […] To evaluate whether effector functions of degradable CAR T cells could be controlled with lenalidomide, primary human CAR T cells were generated and cytotoxicity assays performed comparing the conventional 19BBz CAR to the degradable 19BBz-d91.3 CAR in vitro. […] Then cytokine production was analyzed in response to antigen stimulation.
# (§3) Primary human CAR-T effector cells were co-cultured with NALM6 target cells engineered to express click beetle green luciferase at the indicated ratios for 16 hours. Luciferase activity was measured with a Synergy Neo2 luminescence microplate reader (Biotek). Cell culture supernatant from these experiments was analyzed for soluble cytokines (Luminex).
# K562-CD19 cells = test: Jurkat CAR functional assay: CD69 expression after co-culture with K562-CD19 cells; assay type: cell-based; details: higher concentrations of lenalidomide; overnight co-culture with K562-CD19
# Source text: FIG. 12A-12D—ON-switch split CARs only function in the presence of lenalidomide. (FIG. 12A) Schematic of split CAR constructs. Each split CAR is composed of the indicated antigen-binding part A and the ITAM-containing part B. The lenalidomide-induced dimerization module is encoded by zinc fingers from IKZF3 or the engineered 913 zinc finger and a fragment of CRBN (CRBNΔ3). The intracellular domains of each split CAR part A is protected from CRL4^CRBN ubiquitination by K>R “K0” substitutions. The control second generation CAR FMC63-CD28-CD3z was also used. sCAR, split CAR. […] (FIG. 12C) Primary T cells were infected with lentiviruses encoding parts A and B of split CAR 913. Untransduced cells and cells expressing components A only, B only, and both A+B were purified by FACS. Cytotoxic activity of each sorted cell population was measured after overnight co-culture with NALM6 target cells and lenalidomide or vehicle control at the indicated effector:target ratios. The maximum plasma concentration for once daily 25 mg lenalidomide in multiple myeloma patients is indicated. (FIG. 12D) Scatterplots showing the production of cytokines after co-culture (1:1 CAR T:NALM6 ratio) in the presence of 1000 nM lenalidomide versus vehicle control. Experiments were performed in triplicate and error bars indicate standard deviation.
# FIG. 24 Validation of lenalidomide-OFF-switch control of CAR T cell activation, as assessed by expression of the early activation marker CD69, in Jurkat T cells expressing various super-degron tagged chimeric antigen receptors. Regulation of CAR T cell activation with the indicated super-degrons, in comparison to the previously described degron d913. […]
# Thalidomide analogs control degradable CAR T cell activation and effector functions in vitro and in vivo. […] Then cytokine production was analyzed in response to antigen stimulation.
# [2] = system: CAR protein abundance in CAR-Jurkat cells; test: Jurkat CAR protein degradation (flow cytometry anti-Myc tag, western blot)
# Description: CAR-Jurkat cells were treated with lenalidomide or vehicle control and then (FIG. 13B) analyzed by western blot for the specified targets or (FIG. 13C) analyzed by flow cytometry to quantify the CAR protein abundance normalized to vehicle control (anti-Myc tag). (FIG. 13D) CAR-Jurkat cells were co-cultured with K562-CD19 cells and lenalidomide or vehicle control and then analyzed by flow cytometry for the percentage of CD69+ cells. (FIG. 13E) The concentration of IL2 in supernatants from FIG. 13D was measured by ELISA. […] All experiments were performed in triplicate. Error bars indicate standard deviation.
# Next, the kinetics of CAR depletion was examined after the addition of lenalidomide. […] We also examined the dynamics of CAR re-synthesis after washout of lenalidomide.
# Normalized CAR expression was calculated via subtraction of the MFI of unstained cells and normalization to the signal intensity of vehicle control-treated cells. […] Luciferase-tagged CAR luminescence was measured with an EnVision plate reader (PerkinElmer).
# NALM6 target cells [3] = test: Cellular cytotoxicity assay of primary human CAR-T cells; assay type: cell-based; details: 100 nM or 1000 nM lenalidomide; primary human CAR T cells, NALM6
# Source text: as §1, §2, §3
# [4] = system: JeKo-1 mantle cell lymphoma cells; test: In vivo tumor control model, mantle cell lymphoma xenograft; details: NSG mice engrafted with JeKo-1 cells; no drug
# Description: (§4) FIG. 14A-14I—OFF-switch degradable CARs can be transiently depleted with pomalidomide and enforce tumor control in vivo. (FIG. 14A) Schematic of luciferase-tagged CAR constructs. […] (FIG. 14C) Summary of BLI 24 hours before, 6 hours after, and 24 hours after pomalidomide. Comparing the d91.3 and d91.3* CARs across each timepoint using two-tailed t-tests yielded p-values of 0.35, 0.003, and 0.14, respectively. (FIG. 14D) BLI representing CAR abundance over time. (FIG. 14E) Experimental design for in vivo tumor control model: NSG mice were injected intravenously with 1e6 GFP+/luciferase+ JeKo-1 tumor cells. At day 0, mice were randomly assigned on the basis of tumor burden to receive 1e6 control T cells (UTD), 19BBz, or 19BBz-d91.3. (FIG. 14F) Average luminescence of whole mice in the 3 groups over time. […] The percentage of JeKo-1 cells (FIG. 14H) and human T cell (FIG. 14I) among mononuclear cells in the bone marrow or spleen at day 35.
# Subtle sequence changes to chimeric antigen receptors have been associated with intended and unintended consequences for CAR T cell efficacy and toxicity in clinical trials as well as pre-clinical models (23, 33, 34). Therefore, we determined whether addition of the zinc finger super-degron tag impacts CAR T cell activity in a mantle cell lymphoma xenograft model. We engrafted NSG mice with CD19+ luciferase+ JeKo-1 mantle cell lymphoma cells. […]
# 2FKBP (N+L) Cas9 = test: dTAG-induced degradation of FKBP-Cas9 (eGFP disruption, western blotting, degradation kinetics); assay type: cell-based; details: multiple assays
# Description: Degraders targeting variant Cas9 proteins is explored in the following example. SpCas9 variants were prepared and transfected into several cell lines.
# Control of CRIPSR-Cas degradation can control editing outcomes.
# [5] = 25 mg per day dosing; multiple myeloma patients; cited from earlier work
# [6] = system: Jurkat cells expressing 19BBz-FLuc-d91.3 in NSG mice; test: In vivo CAR depletion model (bioluminescent imaging of luciferase-tagged CAR)
# Description: as §4
# As expected, after exposure to lenalidomide, we observed a dose-dependent decrease in luminescence from Jurkat cells expressing degradable but not control luciferase-tagged CARs (FIG. 14A). Applicants then transplanted NSG mice with the engineered T cells. After establishing detectable engraftment by luminescence imaging, we administered a single 10 mg/kg oral pomalidomide dose the following day, and measured luminescence. […]
# [7] = system: NALM6 cells engrafted in NSG mice; test: In vivo CAR T cell cytokine release model; details: day 5
# Source text: To evaluate whether degradable CAR T cell cytokine release could be controlled in vivo, a high-level tumor engraftment model was used to provoke CAR T cell cytokine release. NALM6 cells were engrafted in non-obese diabetic scid gamma (NSG) mice one week before injection of conventional 19BBz CAR T cells, degradable 19BBz-d91.3 CAR T cells, or untransduced control T cells. On days 3-5 after T cell transfer, mice were either left untreated, treated daily, or treated twice daily with pomalidomide, which was used for in vivo experiments because it has a longer in vivo half-life than lenalidomide. On the afternoon of day 5, serum plasma concentrations were measured for a panel of human T cell cytokines (FIG. 14C). IFN-gamma levels were reduced four-fold (p=0.04) with daily and six-fold (p=0.01) with twice-daily pomalidomide treatment. […] Thus, pomalidomide can be used to limit cytokine release in vivo, the major driver of CAR T cell hyperactivation toxicities.
compound,measurement,setting,value
"19BBz-d91.3: degradable anti-CD19 CAR (4-1BB, CD3z) with d91.3 super-degron tag (FNVLMVHKRSHTGERPLQCEICGFTCRQKGNLLRHIKLHTGEKPFKCHLCNYACQRRDAL; not fully specified; cysteine pairing not given here)",secretion of cytokines reflective of T cell activation,NALM6 target cells [1],reduced the secretion of all evaluated cytokines
same,inhibition of CD69 early activation marker expression,K562-CD19 cells,more completely
same,Half-maximal depletion of the degradable CAR after addition of lenalidomide,[2]; Jurkat cells,~20 min
same,Half-maximal recovery of expression after washout of lenalidomide,[2]; Jurkat cells,~3.6 h
same,fold lower lenalidomide concentration for depletion than endogenous IKZF3,"[2]; western blot, Jurkat cells",approximately 100 fold
same,lenalidomide concentration for depletion as fraction of that required to deplete endogenous IKZF3,"[2]; western blot, Jurkat cells",approximately 1/100
same,target cell killing (specific lysis),NALM6 target cells [3],not detected above background
same,"survival, tumor burden (BLI, spleen, bone marrow), T cell persistence versus conventional 19BBz CAR T cells",[4],no significant differences
CC[C@H](C(=O)N1CCCC[C@H]1C(=O)O[C@H](CCc1ccc(OC)c(OC)c1)c1ccccc1OCC(=O)NCCCCCCCCNc1ccc2c(c1)C(=O)N(C1CCC(=O)NC1=O)C2=O)c1cc(OC)c(OC)c(OC)c1 (stereo partly drawn) [dTAG],concentration sufficient for complete degradation of 2FKBP (N+L) Cas9,2FKBP (N+L) Cas9,1 µM
"Nc1cccc2c1CN(C1CCC(=O)NC1=O)C2=O (stereo not drawn) [lenalidomide, reference compound]",t½ of CAR depletion upon addition of lenalidomide,"[2]; CAR-Jurkat cells, 95% CI 0.29-0.38",0.33 h
same,t½ of CAR re-expression following lenalidomide treatment and drug washout,"[2]; CAR-Jurkat cells, 95% CI 1.88-13.6",3.57 h
same,maximum plasma concentration,[5],1.9 µM
Nc1cccc2c1C(=O)N(C1CCC(=O)NC1=O)C2=O (stereo not drawn) [pomalidomide],luminescence of degradable CAR after 24 hours,[6]; 24 hours after single 10 mg/kg oral pomalidomide dose,recovered to levels similar to that of the control CAR
same,reduction of luminescence from the degradable CAR versus pre-treatment,"[6]; six hours after single 10 mg/kg oral pomalidomide dose, p=0.003",5 fold
same,reduction of serum IFN-gamma levels,"[7]; daily 30 mg/kg pomalidomide oral gavage days 3-5, p=0.04",four-fold
same,reduction of serum IL-2 levels,"[7]; daily pomalidomide, p=0.05",four-fold
same,reduction of serum IFN-gamma levels,"[7]; twice-daily 30 mg/kg pomalidomide oral gavage days 3-5, p=0.01",six-fold
same,reduction of serum IL-2 levels,"[7]; twice-daily pomalidomide, p=0.06",not significantly reduced

# Source: US20230151342A1, “ZINC FINGER DEGRADATION DOMAINS” (THE BROAD INSTITUTE, INC, priority 2020, published 2023)
